Reference: patent US20210186977A1, “MEDICAL USES” (priority 2018, published 2021)

Tested on: Herpes Zoster (varicella zoster virus)
Assay: Valaciclovir prophylaxis against HZ activation in patients receiving CellProtect infusions
Format: in vivo, human
Conditions: 500 mg twice daily for 6 months following infusions; patients 110 and 111; within 12 months following prophylaxis
Description: Since the development of HZ was clearly associated with the NK cell infusions in the first four patients the last two patients (110 and 111) were treated with high dose valaciclovir, 500 mg twice daily for 6 months following the infusions.

CC(C)[C@H](N)C(=O)OCCOCn1cnc2c(=O)[nH]c(N)nc21 [valaciclovir]
Signs of HZ activation: did not show any signs of HZ activation
